Results reported in paper PMC10388202, “Single amino acid–based PROTACs trigger degradation of the oncogenic kinase BCR–ABL in chronic myeloid leukemia (CML)” (The Journal of Biological Chemistry, 2023).
Where “and” joins values, the source holds several entries; their conditions need not be identical. Equal entries are not always repeated. Entries after “also recorded” stand apart in the source; their conditions may differ. Where two headings read alike, the source gives them in different places. Peptide text beside a SMILES is read from it. * marks the point of attachment. Cbz = O=C(OCc1ccccc1)*

Assays:
pSTAT5 = experiment: STAT5 phosphorylation after drug washout (immunoblot); format: cell-based, human; conditions: K562 cells, 1 nM 2 days, compound-free medium
Experimental: For controls, we also examined the activity of the PROTAC without the single amino acid (an intermediate product NH2-PEG1-Dasa, Fig. S1A) or Dasa alone on cell viability of K562 cells for 48 h. […] Moreover, the ability of Arg-PEG1-Dasa–mediated degradation of BCR–ABL was mitigated by cotreatment with excess Dasa or NH2-PEG1-Dasa in the competition assay (Fig. 2F). One advantage of PROTACs versus traditional inhibitors is that only the transient drug–target interaction is needed for its target suppression.
Cells were collected and lysed in radioimmunoprecipitation assay buffer (50 mM Tris–HCl [pH 8.0], 1% NP-40, 150 mM NaCl, 0.1% SDS, 0.5% sodium deoxycholate, and 1× complete protease inhibitor cocktail) on ice for 20 min and centrifuged at 15,000 rpm for 10 min at 4 °C to collect the supernatant. After protein concentrations were measured by the bicinchoninic acid protein assay kit (Thermo Scientific), samples with equal amounts of proteins were mixed with loading buffer and denatured by boiling. Protein lysates were resolved by SDS-PAGE and transferred to polyvinylidene fluoride membranes. Then, the membranes were blocked in 5% nonfat milk for 1 h at room temperature, incubated with a primary antibody overnight at 4 °C, and then incubated with horseradish peroxidase–conjugated secondary antibodies for 1 h at room temperature. […]

K562 cells [1] = experiment: K562 cell viability, CCK-8 assay; format: cell-based; conditions: Homo sapiens, 48 h, read-out: IC50 (half maximal inhibitory concentration), K562 proliferation
Experimental: K562 cells (5 × 10^3 cells per well) were grown in 96-well plates with 100 μl medium. After the treatment with the PROTACs at various concentrations (0, 0.01, 0.1, 0.25, 0.5, 0.75, 1, and 2.5 nM) for 48 h, CCK-8 solution was added to each well and incubated for 2 h at 37 °C, and the number of viable cells was determined by measuring the absorbance of the converted dye at a 450 nm wavelength, according to the manufacturer’s instructions (Yeasen). Each experiment was performed at least three times independently.

K562 xenograft = experiment: K562 CML xenograft mouse model, tumor growth; format: in vivo; conditions: nude mice, 10 mg/kg i.p. every other day, 10 doses, day 27
Experimental: (§1) To evaluate the effects of the N-end rule–based PROTAC on tumor growth in vivo, we set up a K562 CML xenograft mouse model. K562 cells were subcutaneously implanted into the right flank of female nude mice. When the tumors reached a palpable volume of about 50 to 80 mm^3 at day 7, the mice bearing K562 tumors were then divided into two groups randomly and administered every other day with either vehicle or Arg-PEG1-Dasa (10 mg/kg) for total 10 doses by intraperitoneal injection. Tumor volumes were measured at indicated time with calipers. When sacrificed on day 27, the tumors were harvested and photographed (Fig. 6A). The amount of BCR–ABL protein in vivo upon Arg-PEG1-Dasa treatment was examined in K562 xenograft mouse model using the immunohistochemistry (Fig. 6B) and immunoblot (Fig. 6C). […]. Further studies are needed to optimize PROTAC or administration strategy to achieve better therapeutic effects.
(§2) K562 cells (1 × 10^7 cells/200 μl) were subcutaneously injected into the right flank of 4-week-old female nude mice. […]. The drugs were subsequently administered by i.p. injection every other day with either vehicle, Arg-PEG1-Dasa, or Dasa (10 mg/kg) for total 10 doses. The growth of tumors in mice was measured with a Vernier caliper. The tumor volume was determined using the formula volume = 0.5 × (length) × (width)^2. […]

BCR–ABL [2] = target: T1, BCR–ABL (Homo sapiens, UniProt P00519+P11274); experiment: BCR–ABL protein in K562 xenograft tumors (immunohistochemistry, immunoblot); conditions: nude mice, 10 mg/kg i.p. every other day, 10 doses, IHC and immunoblot
Experimental: To evaluate the effects of the N-end rule–based PROTAC on tumor growth in vivo, we set up a K562 CML xenograft mouse model. K562 cells were subcutaneously implanted into the right flank of female nude mice. […] Tumor volumes were measured at indicated time with calipers. When sacrificed on day 27, the tumors were harvested and photographed (Fig. 6A).
Cells were collected and lysed in radioimmunoprecipitation assay buffer (50 mM Tris–HCl [pH 8.0], 1% NP-40, 150 mM NaCl, 0.1% SDS, 0.5% sodium deoxycholate, and 1× complete protease inhibitor cocktail) on ice for 20 min and centrifuged at 15,000 rpm for 10 min at 4 °C to collect the supernatant. After protein concentrations were measured by the bicinchoninic acid protein assay kit (Thermo Scientific), samples with equal amounts of proteins were mixed with loading buffer and denatured by boiling. Protein lysates were resolved by SDS-PAGE and transferred to polyvinylidene fluoride membranes. Then, the membranes were blocked in 5% nonfat milk for 1 h at room temperature, incubated with a primary antibody overnight at 4 °C, and then incubated with horseradish peroxidase–conjugated secondary antibodies for 1 h at room temperature. Subsequently, the membranes were probed with ECL reagent (Millipore), and proteins were visualized by a Tanon-5200 Automatic Chemiluminescence Imaging Analysis System (Tanon). […]

[3] = Body weight of mice in K562 xenograft model; format: in vivo
Experimental: as §1, §2

K562 cells [4] = experiment: K562 cell growth after drug washout (CCK-8); format: cell-based, human; conditions: 1 nM 48 h, drug-free medium 1 to 4 days
Experimental: Figure 2 Arg-PEG (1–4)-Dasa induced the degradation of BCR–ABL through the proteasome.A, K562 cells were incubated with Arg-PEG (1–4)-Dasa bearing different numbers of PEG linker at indicated concentration for 48 h. The expression of various proteins indicated was determined by immunoblotting. B, K562 cell viability was examined using CCK-8 assays after the treatment with Arg-PEG (1–4)-Dasa for 48 h at various concentrations (0, 0.01, 0.1, 0.25, 0.5, 0.75, 1, and 2.5 nM). C, immunoblot analysis of the indicated proteins in K562 cells treated with various compounds at 1 nM for 48 h. D, immunoblot analysis of the proteins indicated in K562 cells treated with gradually increasing doses of Arg-PEG1-Dasa for 48 h. E, immunoblot analysis of the indicated proteins in K562 cells treated with DMSO, Arg-PEG1-Dasa, Dasa, or NH2-PEG1-Dasa at 1 nM for 48 h. F, immunoblot analysis of the indicated proteins in K562 cells pretreated with Dasa or NH2-PEG1-Dasa (1 nM) for 2 h followed by Arg-PEG1-Dasa treatment at 1 nM for 48 h. G and H, K562 cells were treated with indicated compounds at 1 nM for 2 days, following washout and incubation compound-free medium. G, cell growth was detected using CCK-8 assays at the indicated times. H, the protein level indicated was tested with immunoblot. […]

BCR–ABL [5] = target: T2, BCR–ABL (Homo sapiens, UniProt P00519); experiment: BCR–ABL degradation in K562 cells (immunoblot); format: cell-based; conditions: 5 nM, 48 h, read-out: DMax (maximum degradation percentage in comparison with control) at 5 nM
T2 construct: assessed in human CML K562 cells bearing BCR–ABL; host or cells: K562
Experimental: (§3) The ability of Arg-PEGn-Dasa PROTACs to induce BCR–ABL degradation was assessed in human CML K562 cells bearing BCR–ABL. […] We next evaluated the impact of Arg-PEGn-Dasa on cell proliferation in K562 cells using Cell Counting Kit-8 (CCK-8) assay.
(§4) Cells were collected and lysed in radioimmunoprecipitation assay buffer (50 mM Tris–HCl [pH 8.0], 1% NP-40, 150 mM NaCl, 0.1% SDS, 0.5% sodium deoxycholate, and 1× complete protease inhibitor cocktail) on ice for 20 min and centrifuged at 15,000 rpm for 10 min at 4 °C to collect the supernatant. After protein concentrations were measured by the bicinchoninic acid protein assay kit (Thermo Scientific), samples with equal amounts of proteins were mixed with loading buffer and denatured by boiling. Protein lysates were resolved by SDS-PAGE and transferred to polyvinylidene fluoride membranes. Then, the membranes were blocked in 5% nonfat milk for 1 h at room temperature, incubated with a primary antibody overnight at 4 °C, and then incubated with horseradish peroxidase–conjugated secondary antibodies for 1 h at room temperature. Subsequently, the membranes were probed with ECL reagent (Millipore), and proteins were visualized by a Tanon-5200 Automatic Chemiluminescence Imaging Analysis System (Tanon).

[6] = tested on: glutathione-S-transferase-BCR–ABL; experiment: Ubiquitination assay of GST-BCR–ABL in HEK293T cells (denaturing IP); format: cell-based, human; conditions: HEK293T cells coexpressing GST-BCR–ABL and myc-Ub, 48 h
Experimental: To determine the degradation pathway of BCR–ABL induced by PROTAC, we added lysosome acidification inhibitor chloroquine or proteasome inhibitor MG132 into Arg-PEG1-Dasa–treated K562 cells. […] To ascertain that Arg-PEG1-Dasa induced BCR–ABL turnover, we monitored the degradation kinetics of BCR–ABL with or without the PROTAC treatment. K562 cells were treated with cycloheximide to block protein synthesis and sampled at various time points for BCR–ABL levels. […] To further evaluate the involvement of the proteasome in PROTAC-induced degradation, we also added the proteasome inhibitor MG132 in the reaction. […] We next sought to investigate the Arg-PEG1-Dasa–induced ubiquitination of BCR–ABL.
Ubiquitination of BCR–ABL was detected using denatured immunoprecipitation. Cells were lysed in SDS-denaturing buffer (50 mM Tris–HCl [pH 7.4], 150 mM NaCl, 1% NP-40, 1% SDS, and 0.5% sodium deoxycholate) and boiled for 10 min. Cell lysates were then diluted 10-fold in native lysis buffer (50 mM Tris–HCl [pH 7.4], 150 mM NaCl, 1% NP-40, and 0.5% sodium deoxycholate). After centrifugation at 15,000 rpm for 10 min, the supernatants were immunoprecipitated using glutathione-Sepharose 4B beads (GE Healthcare) and incubated for 2 h at 4 °C. Beads were then washed five times using the native lysis buffer. […]

BCR–ABL [7] = target: T1, BCR–ABL; experiment: BCR–ABL degradation in K562 cells (immunoblot); format: cell-based; design: assessed in human CML K562 cells bearing BCR–ABL; host or cells: K562; conditions: for time at which BCR–ABL reduction appears: 1 nM; for DC50: immunoblot, read-out: DC50 (drug concentration that degrades 50% protein)
Experimental: as §3, §4

T2 sequence (P00519 whole entry, looked up): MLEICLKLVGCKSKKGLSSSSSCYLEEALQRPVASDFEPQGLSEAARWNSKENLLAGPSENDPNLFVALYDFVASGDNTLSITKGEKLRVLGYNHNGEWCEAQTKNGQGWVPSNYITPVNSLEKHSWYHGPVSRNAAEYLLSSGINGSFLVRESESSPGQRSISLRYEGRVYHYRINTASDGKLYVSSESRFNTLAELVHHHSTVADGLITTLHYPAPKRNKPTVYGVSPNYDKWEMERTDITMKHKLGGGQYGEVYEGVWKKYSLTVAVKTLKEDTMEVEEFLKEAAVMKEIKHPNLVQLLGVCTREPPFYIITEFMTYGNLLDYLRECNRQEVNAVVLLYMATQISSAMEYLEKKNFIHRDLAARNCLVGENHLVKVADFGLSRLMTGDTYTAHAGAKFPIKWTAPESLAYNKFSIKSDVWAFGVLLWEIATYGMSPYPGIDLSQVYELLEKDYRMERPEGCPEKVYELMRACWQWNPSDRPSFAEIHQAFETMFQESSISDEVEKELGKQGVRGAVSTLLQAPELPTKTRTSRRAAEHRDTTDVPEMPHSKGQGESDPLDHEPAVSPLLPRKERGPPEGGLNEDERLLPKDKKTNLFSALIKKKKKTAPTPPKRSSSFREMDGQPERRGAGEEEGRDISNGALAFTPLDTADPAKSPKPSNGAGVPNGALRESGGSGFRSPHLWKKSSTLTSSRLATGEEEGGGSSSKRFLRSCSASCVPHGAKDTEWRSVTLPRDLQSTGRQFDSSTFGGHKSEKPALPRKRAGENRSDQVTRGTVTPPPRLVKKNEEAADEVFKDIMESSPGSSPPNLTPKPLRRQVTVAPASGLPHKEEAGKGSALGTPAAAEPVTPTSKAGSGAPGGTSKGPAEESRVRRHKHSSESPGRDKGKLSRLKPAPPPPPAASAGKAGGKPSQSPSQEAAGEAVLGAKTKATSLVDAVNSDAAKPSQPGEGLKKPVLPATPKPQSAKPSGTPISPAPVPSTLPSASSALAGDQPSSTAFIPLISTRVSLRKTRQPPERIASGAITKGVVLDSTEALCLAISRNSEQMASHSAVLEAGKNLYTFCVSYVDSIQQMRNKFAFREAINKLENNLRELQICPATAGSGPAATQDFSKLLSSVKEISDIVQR
T1 sequence (P11274+P00519 fused): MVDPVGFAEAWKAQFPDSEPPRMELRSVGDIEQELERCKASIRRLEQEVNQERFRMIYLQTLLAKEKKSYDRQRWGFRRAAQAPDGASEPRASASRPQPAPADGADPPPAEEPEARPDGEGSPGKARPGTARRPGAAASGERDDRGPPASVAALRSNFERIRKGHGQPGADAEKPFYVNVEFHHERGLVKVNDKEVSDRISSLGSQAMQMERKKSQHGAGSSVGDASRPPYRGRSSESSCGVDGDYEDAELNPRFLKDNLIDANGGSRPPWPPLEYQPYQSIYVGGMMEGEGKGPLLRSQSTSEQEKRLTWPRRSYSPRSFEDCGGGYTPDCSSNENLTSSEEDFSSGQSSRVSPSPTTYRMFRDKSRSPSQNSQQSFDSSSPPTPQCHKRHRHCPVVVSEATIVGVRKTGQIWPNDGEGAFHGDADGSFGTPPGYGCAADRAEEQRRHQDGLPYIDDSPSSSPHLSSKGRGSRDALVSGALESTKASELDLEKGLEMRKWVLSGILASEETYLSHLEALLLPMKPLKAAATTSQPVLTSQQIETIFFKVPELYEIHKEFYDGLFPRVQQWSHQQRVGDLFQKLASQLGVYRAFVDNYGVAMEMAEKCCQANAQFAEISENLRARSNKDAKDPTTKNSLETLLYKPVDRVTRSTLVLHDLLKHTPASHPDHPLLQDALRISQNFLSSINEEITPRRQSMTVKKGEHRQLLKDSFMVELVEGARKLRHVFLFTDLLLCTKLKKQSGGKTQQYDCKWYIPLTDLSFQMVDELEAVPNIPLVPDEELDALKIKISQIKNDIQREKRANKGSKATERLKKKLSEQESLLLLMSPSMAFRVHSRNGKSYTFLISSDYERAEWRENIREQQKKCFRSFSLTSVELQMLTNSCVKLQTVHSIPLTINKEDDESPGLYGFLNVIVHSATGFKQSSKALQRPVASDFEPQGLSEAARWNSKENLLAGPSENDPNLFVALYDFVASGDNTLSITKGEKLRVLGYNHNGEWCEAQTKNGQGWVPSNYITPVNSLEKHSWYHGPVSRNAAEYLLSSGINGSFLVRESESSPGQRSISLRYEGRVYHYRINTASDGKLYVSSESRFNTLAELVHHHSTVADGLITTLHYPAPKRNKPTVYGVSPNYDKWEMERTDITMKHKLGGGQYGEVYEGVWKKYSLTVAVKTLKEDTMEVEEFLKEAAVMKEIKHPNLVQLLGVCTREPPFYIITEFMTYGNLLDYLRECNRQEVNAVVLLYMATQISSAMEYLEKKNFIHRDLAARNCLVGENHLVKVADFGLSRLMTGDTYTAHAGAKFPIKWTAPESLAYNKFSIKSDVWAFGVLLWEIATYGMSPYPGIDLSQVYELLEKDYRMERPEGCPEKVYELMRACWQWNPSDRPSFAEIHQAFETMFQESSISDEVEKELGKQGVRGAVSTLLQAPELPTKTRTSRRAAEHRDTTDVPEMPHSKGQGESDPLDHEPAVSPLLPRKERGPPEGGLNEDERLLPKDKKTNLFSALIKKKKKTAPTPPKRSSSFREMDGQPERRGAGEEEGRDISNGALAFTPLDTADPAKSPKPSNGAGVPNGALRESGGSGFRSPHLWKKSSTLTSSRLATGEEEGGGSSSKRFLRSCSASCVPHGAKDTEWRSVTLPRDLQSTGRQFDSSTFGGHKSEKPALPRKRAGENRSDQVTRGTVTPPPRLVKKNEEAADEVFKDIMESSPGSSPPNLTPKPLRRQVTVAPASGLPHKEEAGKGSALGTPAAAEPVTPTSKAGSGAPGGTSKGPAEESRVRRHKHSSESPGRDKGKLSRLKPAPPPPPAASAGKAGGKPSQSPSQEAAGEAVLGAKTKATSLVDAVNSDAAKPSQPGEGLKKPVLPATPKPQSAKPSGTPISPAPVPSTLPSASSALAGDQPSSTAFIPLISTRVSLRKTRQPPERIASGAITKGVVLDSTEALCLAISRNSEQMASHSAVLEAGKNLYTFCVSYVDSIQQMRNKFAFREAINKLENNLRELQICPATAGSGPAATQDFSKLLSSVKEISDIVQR

SMILES	IC50 (K562 cells [1])	Dmax at 0.005 µM (BCR–ABL [5])	time at which BCR–ABL reduction appears (BCR–ABL [7])	DC50 (BCR–ABL [7]; 48 h)	also measured
Cc1nc(Nc2ncc(C(=O)Nc3c(C)cccc3Cl)s2)cc(N2CCN(CCOC(=O)CCOCCNC(=O)C(N)CCCNC(=N)N)CC2)n1 (stereo not shown) [Arg-PEG1-Dasa]	0.359 nM	98.8%	48 h	0.85 nM and 0.849 nM	pSTAT5 / STAT5 phosphorylation after drug withdrawal (pSTAT5): remained markedly diminished; tumor growth (K562 xenograft; 10 mg/kg): dramatically impeded tumor growth; also recorded: does not exhibit better antitumor effects than Dasa; also recorded: robust antitumor effects; BCR–ABL protein level in tumor (BCR–ABL [2]): significantly downregulated; body weight / tolerability ([3]; nude mice, 10 mg/kg i.p. every other day, 10 doses): did not significantly alter the body weight; also recorded: without overt drug toxicity; cell growth after drug removal (K562 cells [4]): sustained growth inhibition; ubiquitination of immunoprecipitated BCR–ABL [6]: displayed the ubiquitination of immunoprecipitated BCR–ABL; BCR–ABL protein level after drug withdrawal (BCR–ABL [7]; 1 nM 2 days, washout, compound-free medium): remained markedly diminished; BCR–ABL degradation kinetics (cycloheximide chase) (BCR–ABL [7]; 2.5 nM for 32 h, then cycloheximide): quickly reduced; DC50 (BCR–ABL [7]; 48 h, listed as Arg-based PROTAC): ~0.85 nM; BCR–ABL degradation in combination with Lys-, Leu-, or Phe-PEG1-Dasa (BCR–ABL [7]; Arg-PEG1-Dasa mixed with varying doses of second PROTAC): not further enhanced
Cc1nc(Nc2ncc(C(=O)Nc3c(C)cccc3Cl)s2)cc(N2CCN(CCOC(=O)CCOCCOCCNC(=O)C(N)CCCNC(=N)N)CC2)n1 (stereo not shown) [Arg-PEG2-Dasa]	0.53 nM				
Cc1nc(Nc2ncc(C(=O)Nc3c(C)cccc3Cl)s2)cc(N2CCN(CCOC(=O)CCOCCOCCOCCNC(=O)C(N)CCCNC(=N)N)CC2)n1 (stereo not shown) [Arg-PEG3-Dasa]	0.48 nM				
Cc1nc(Nc2ncc(C(=O)Nc3c(C)cccc3Cl)s2)cc(N2CCN(CCOC(=O)CCOCCOCCOCCOCCNC(=O)C(N)CCCNC(=N)N)CC2)n1 (stereo not shown) [Arg-PEG4-Dasa]	0.524 nM				
Cc1nc(Nc2ncc(C(=O)Nc3c(C)cccc3Cl)s2)cc(N2CCN(CCO)CC2)n1 [Dasa, dasatinib, reference compound]					pSTAT5 / STAT5 phosphorylation after drug withdrawal (pSTAT5): gradually recovered; tumor growth (K562 xenograft): potent tumor growth inhibition; body weight / tolerability ([3]; mouse, in vivo, ip, 10 mg/kg): without significant loss of body weight; cell growth after drug removal (K562 cells [4]): gradually resumed; also recorded: rapid recovery
Cc1nc(Nc2ncc(C(=O)Nc3c(C)cccc3Cl)s2)cc(N2CCN(CCOC(=O)CCOCCNC(=O)[C@@H](N)CC(C)C)CC2)n1 [Leu-PEG1-Dasa]	0.22 nM	91.2%	12 h	0.479 nM	DC50 (BCR–ABL [7]; 48 h, listed as Leu-based PROTAC): 0.48 nM
Cc1nc(Nc2ncc(C(=O)Nc3c(C)cccc3Cl)s2)cc(N2CCN(CCOC(=O)CCOCCNC(=O)[C@@H](N)CCCCN)CC2)n1 [Lys-PEG1-Dasa]	0.457 nM	99.1%	48 h	0.981 nM	DC50 (BCR–ABL [7]; 48 h, listed as Lys-based PROTAC): 0.98 nM
CC(C)C[C@@H](C=O)NC(=O)[C@H](CC(C)C)NC(=O)[C@H](CC(C)C)NC(=O)OCc1ccccc1 [MG132, reference compound] (Cbz-Leu-Leu-Leu-aldehyde)					effect on Arg-PEG1-Dasa–mediated degradation of BCR–ABL (BCR–ABL [7]; MG132 10 μM or chloroquine 25 μM with Arg-PEG1-Dasa 1 nM, 48 h): blocked
Cc1nc(Nc2ncc(C(=O)Nc3c(C)cccc3Cl)s2)cc(N2CCN(CCOC(=O)CCOCCNC(=O)[C@@H](N)Cc3ccccc3)CC2)n1 [Phe-PEG1-Dasa]	0.294 nM	81%	36 h	1.56 nM	DC50 (BCR–ABL [7]; 48 h, listed as Phe-based PROTAC): 1.56 nM
